What was measured:
Sprague Dawley rats = assay: Cardiovascular and behavioral effects: ECG changes during i.v. infusion in conscious rats; assay type: in vivo, rat
Method: Preparative surgery is performed in Sprague Dawley rats weighing 200–300 gm and anaesthetized with 65 mg/kg (i.p.) pentobarbital. The femoral artery and vein are cannulated using polyethylene (PE)-10 tubing. Prior to surgery, this PE-10 tubing had been annealed to a wider gauge (PE-50) tubing for externalization. The cannulated PE-10/PE-50 tubing is passed through a trocar and exteriorised together with three (lead II) limb ECG leads (see below). The trocar is threaded under the skin of the back and out through a small incision at the mid-scapular region. A ground ECG electrode is inserted subcutaneously using a 20 gauge needle with the lead wire threaded through it. To place the other ECG electrodes, a small incision is made in the anterior chest region over the heart and ECG leads are inserted into the subcutaneous muscle layer in the region of the heart using a 20 guage needle. Other ECG leads are inserted into the subcutaneous muscle layer in the region near the base of the neck and shoulder (right side). The animal is returned to a clean recovery-cage with free access to food and water. The treatment and observational period for each animal commenced after a 24-hour recovery period.
A 15 min observational period is recorded followed by the intravenous infusion regime of the test compound at an initial dose of 2.0 μmol/kg/min (at 1 ml/hr). This rate is doubled every 5 minutes until one of the following effects is observed:
Blood pressure (BP), heart rate (HR) and ECG variables are continuously recorded while behavioral responses are also monitored and the total accumulative drug dose and drug infusion rate at which the response (such as convulsion, piloerection, ataxia, restlessness, compulsive chewing, lip-smacking, wet dog shake etc.) occurred are recorded.
Electrocardiograph (ECG) parameters: PR, QRS, QT1 (peak of T-wave), QT2 (midpoint of T-wave deflection) and hemodynamic parameters: BP and HR are analyzed using the automated analysis function in LabView (National Instruments) with a customized autoanalysis software (Nortran Pharmaceuticals). The infused dose producing 25% from control (D25) for all recorded ECG variables is determined.
Table 2 describes the results of the tests as D25 (micromol/kg) which are the doses required to produce a 25% increase in the ECG parameter measured (ne=not estimated). The increases in P-R interval and QRS interval indicate cardiac sodium channel blockade while the increase in Q-T interval indicates cardiac potassium channel blockade.

hH1 Na+ current = molecular target: T1, hH1 Na+ current (Homo sapiens, UniProt Q14524); assay: Patch-clamp inhibition of cloned ion channel current in transfected HEK cells: Na; assay type: cell-based; conditions: peak hH1 Na+ current, -100 mV to -30 mV
T1 construct: expressed in transfected cells; host or cells: HEK cells, transient transfection, vector pCDNA3
Method: The relevant cloned ion channels (e.g. cardiac hH1, Kv1.4, Kv1.5, Kv4.2, Kv2.1, HERG etc.) are studied by transient transfection into HEK cells using the mammalian expression vector pCDNA3. Transfections for each channel type are carried out separately to allow individual study of the ion channel of interest. Cells expressing channel protein are detected by cotransfecting cells with the vector pHook-1 (Invitrogen, San Diego, Calif., USA). […] Equal concentrations of individual channel and pHook DNA are incubated with 10× concentration of lipofectAce in Modified Eagle's Medium (MEM, Canadian Life Technologies) and incubated with parent HEK cells plated on 25 mm culture dishes. After 3–4 hours the solution is replaced with a standard culture medium plus 20% fetal bovine serum and 1% antimycotic. Transfected cells are maintained at 37C in an air/5% CO2 incubator in 25 mm Petri dishes plated on glass coverslips for 24–48 hours to allow channel expression to occur. 20 min prior to experiments, cells are treated with beads coated with phOX. After 15 min, excess beads are […] off with cell culture medium and cells which had beads stuck to them are used for electrophysiological tests.
For whole-cell recording the control pipette filling solution contained (in mM): KCl, 130; EGTA, 5; MgCl2, 1; HEPES, 10; Na2ATP, 4; GTP, 0.1; and is adjusted to pH 7.2 with KOH. The control bath solution contained (in mM): NaCl, 135; KCI, 5; sodium acetate, 2.8; MgCl2, 1; HEPES, 10; CaCl2, 1; and is adjusted to pH 7.4 with NaOH. The test ion channel modulating compound is dissolved to 10 mM stock solutions in water and used at concentrations between 0.5 and 100 μM.
Coverslips containing cells are removed from the incubator before experiments and placed in a superfusion chamber (volume 250 μl) containing the control bath solution at 22C to 23C. All recordings are made via the variations of the patch-clamp technique, using an Axopatch 200A amplifier (Axon Instruments, CA). Patch electrodes are pulled from thin-walled borosilicate glass (World Precision Instruments; FL) on a horizontal micropipette puller, fire-polished, and filled with appropriate solutions. Electrodes had resistances of […] when filled with control filling solution. Analog capacity compensation is used in all whole cell measurements. In some experiments, leak subtraction is applied to data. Membrane potentials have not been corrected for any junctional potentials that arose between the pipette and bath solution. Data are filtered at 5 to 10 kHz before digitization and stored on a microcomputer for later analysis using the pClamp6 software (Axon Instruments, Foster City, Calif.). Due to the high level of expression of channel cDNA's in HEK cells, there is no need for signal averaging. The average cell capacitance is quite small, and the absence of ionic current at negative membrane potentials allowed faithful leak subtraction of data.
The concentration-response curves for changes in peak and steady-state current produced by the test compound are computer-fitted to the Hill equation: f=1−1/[1+([…])^n] [1]
where f is the fractional current (f=Idrug/Icontrol) at drug concentration [D]; IC50 is the concentration producing half-maximal inhibition and n is the Hill coefficient.
Compounds of the present invention may be evaluated by this method. […] Block is determined from the decrease in peak hH1 Na^+ current, or in steady-state Kv1.5 and integrated Kv4.2 current in the presence of drug. To record Na^+ current, cells are depolarized from the holding potential of −100 mV to a voltage of −30 mV for 10 ms to fully open and inactivate the channel. To record Kv1.5 and Kv4.2 current, cells are depolarized from the holding potential of −80 mV to a voltage of +60 mV for 200 ms to fully open the channel. Currents are recorded in the steady-state at a range of drug concentrations during stimulation every 4 s. […]

Kv1.5 = molecular target: T2, Kv1.5 (Homo sapiens, UniProt P22460); assay: Patch-clamp inhibition of cloned ion channel current in transfected HEK cells: Kv1.5; assay type: cell-based; conditions: steady-state current, -80 mV to +60 mV
T2 construct: expressed in transfected cells; host or cells: HEK cells, transient transfection, vector pCDNA3
Summary of the method: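 Whole-cell patch clamp at 22–23 °C on transiently transfected HEK cells, compound 0.5–100 μM, pulses every 4 s. Na+: peak current, −100 mV holding, −30 mV for 10 ms; Kv1.5 (steady-state) and Kv4.2 (integrated): −80 mV holding, +60 mV for 200 ms. IC50 by Hill fit, 4–6 cells.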

T2 sequence (P22460 whole entry): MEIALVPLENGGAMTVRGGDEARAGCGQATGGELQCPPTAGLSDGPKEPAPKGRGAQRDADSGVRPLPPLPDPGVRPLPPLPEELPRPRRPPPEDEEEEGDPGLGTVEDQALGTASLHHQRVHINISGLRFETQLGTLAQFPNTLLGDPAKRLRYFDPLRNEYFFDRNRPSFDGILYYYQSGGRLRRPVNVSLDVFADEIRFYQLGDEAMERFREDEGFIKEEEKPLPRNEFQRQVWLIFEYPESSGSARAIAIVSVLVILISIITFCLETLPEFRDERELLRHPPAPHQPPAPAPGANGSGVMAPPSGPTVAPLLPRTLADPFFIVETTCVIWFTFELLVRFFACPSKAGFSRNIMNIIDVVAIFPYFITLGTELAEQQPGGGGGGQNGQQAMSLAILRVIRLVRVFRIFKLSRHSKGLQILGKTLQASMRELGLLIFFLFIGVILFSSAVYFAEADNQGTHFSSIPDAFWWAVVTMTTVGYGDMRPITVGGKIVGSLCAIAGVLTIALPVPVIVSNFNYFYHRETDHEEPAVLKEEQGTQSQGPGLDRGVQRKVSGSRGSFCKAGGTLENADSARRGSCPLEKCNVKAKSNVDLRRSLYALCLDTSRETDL
T1 sequence (Q14524 whole entry): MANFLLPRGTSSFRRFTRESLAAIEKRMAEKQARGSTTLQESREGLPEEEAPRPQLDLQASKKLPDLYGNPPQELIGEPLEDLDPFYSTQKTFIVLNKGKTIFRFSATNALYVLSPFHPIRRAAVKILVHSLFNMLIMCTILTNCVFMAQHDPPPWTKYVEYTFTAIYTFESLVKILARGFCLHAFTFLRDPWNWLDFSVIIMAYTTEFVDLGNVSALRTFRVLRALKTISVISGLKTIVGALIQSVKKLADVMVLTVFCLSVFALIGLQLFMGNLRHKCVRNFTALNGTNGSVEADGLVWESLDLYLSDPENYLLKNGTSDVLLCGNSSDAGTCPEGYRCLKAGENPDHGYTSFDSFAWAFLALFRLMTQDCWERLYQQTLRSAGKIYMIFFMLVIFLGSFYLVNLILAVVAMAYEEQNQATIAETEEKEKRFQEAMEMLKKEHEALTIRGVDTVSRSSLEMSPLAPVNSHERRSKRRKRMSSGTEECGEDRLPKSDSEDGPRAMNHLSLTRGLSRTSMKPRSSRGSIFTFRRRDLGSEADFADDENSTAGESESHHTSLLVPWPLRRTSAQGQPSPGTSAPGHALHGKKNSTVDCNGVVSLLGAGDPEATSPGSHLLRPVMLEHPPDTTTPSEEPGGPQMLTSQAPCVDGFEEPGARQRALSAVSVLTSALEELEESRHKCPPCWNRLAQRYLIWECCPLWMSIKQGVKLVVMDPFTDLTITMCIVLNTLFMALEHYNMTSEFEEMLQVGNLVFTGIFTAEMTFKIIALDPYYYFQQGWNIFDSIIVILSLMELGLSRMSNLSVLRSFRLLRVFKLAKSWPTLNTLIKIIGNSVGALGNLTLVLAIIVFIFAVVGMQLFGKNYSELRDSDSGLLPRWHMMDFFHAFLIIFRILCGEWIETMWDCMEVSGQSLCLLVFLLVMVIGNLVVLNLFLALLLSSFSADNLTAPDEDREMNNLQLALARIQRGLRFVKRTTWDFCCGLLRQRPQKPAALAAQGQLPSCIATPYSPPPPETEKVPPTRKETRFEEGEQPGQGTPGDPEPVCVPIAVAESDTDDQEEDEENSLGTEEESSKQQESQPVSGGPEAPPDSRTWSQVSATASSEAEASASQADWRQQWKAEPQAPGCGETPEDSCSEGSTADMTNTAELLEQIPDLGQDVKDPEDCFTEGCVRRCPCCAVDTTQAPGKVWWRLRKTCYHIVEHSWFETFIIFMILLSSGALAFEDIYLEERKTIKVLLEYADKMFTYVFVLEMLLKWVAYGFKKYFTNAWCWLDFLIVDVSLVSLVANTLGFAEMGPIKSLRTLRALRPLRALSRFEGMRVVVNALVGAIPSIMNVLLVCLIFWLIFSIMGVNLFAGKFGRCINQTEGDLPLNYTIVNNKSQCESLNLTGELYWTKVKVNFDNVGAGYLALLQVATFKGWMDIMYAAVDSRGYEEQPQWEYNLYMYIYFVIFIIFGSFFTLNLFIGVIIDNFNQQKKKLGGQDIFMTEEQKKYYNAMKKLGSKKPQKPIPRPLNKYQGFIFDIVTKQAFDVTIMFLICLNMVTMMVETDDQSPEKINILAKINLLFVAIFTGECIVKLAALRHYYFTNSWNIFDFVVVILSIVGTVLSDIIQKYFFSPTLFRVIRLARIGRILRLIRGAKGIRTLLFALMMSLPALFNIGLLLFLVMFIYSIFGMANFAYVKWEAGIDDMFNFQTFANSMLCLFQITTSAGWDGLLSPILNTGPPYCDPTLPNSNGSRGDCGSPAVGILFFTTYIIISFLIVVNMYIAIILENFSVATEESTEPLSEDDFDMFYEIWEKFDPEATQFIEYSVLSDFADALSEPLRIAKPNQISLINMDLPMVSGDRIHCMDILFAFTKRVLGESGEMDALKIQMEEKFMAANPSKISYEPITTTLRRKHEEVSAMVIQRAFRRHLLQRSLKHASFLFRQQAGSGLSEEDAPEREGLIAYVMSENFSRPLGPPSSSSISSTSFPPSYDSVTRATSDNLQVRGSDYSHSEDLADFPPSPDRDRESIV

IC50 (hH1 Na+ current): 94 µM | IC50 (Kv1.5): 6 µM
SMILES: COc1ccc(CCCOc2cccn3cc(C)nc23)cc1OC [Compound 3, 8-[3-(3,4-DIMETHOXYPHENYL)PROPOXY]-2-METHYLIMIDAZO[1,2-α]PYRIDINE MONOHYDROCHLORDE]
D25 QT (dose required to produce a 25% increase in Q-T interval) (Sprague Dawley rats; indicates cardiac potassium channel blockade): 16 µmol/kg | D25 PR (dose required to produce a 25% increase in P-R interval) (Sprague Dawley rats; indicates cardiac sodium channel blockade): 21 µmol/kg
